This note sets out measurements from PMC10058310 (Science Advances, 2023).

The term IC50 denotes the concentration at which inhibition is half-maximal.

For assay [1], the system named is recombinant SARS2 encoding WT M^pro. Description: microbe, parasite or virus in culture. The class given is cell-based. The following applies: A549-hACE2 cells; for IC50: Severe acute respiratory syndrome coronavirus 2, replication-competent SARS-CoV-2, M^pro WT, 72 hpi, read-out: IC50 (95% CI).
The subject of assay [2] is recombinant SARS2 encoding ∆P168 M^pro. Description: microbe, parasite or virus in culture. The settings on record: Severe acute respiratory syndrome coronavirus 2; read-out: IC50 (95% CI). Format: cell-based.
For assay [3], the target named is SARS2 M^pro ∆P168 (Severe acute respiratory syndrome coronavirus 2, UniProt P0DTD1, DEL3431-3431). The class given is cell-based, SARS-CoV-2.

On to `Cn1cnc(Cn2c(=O)[nH]/c(=N\c3cc4cn(C)nc4cc3Cl)n(Cc3cc(F)c(F)cc3F)c2=O)n1` [Ensitrelvir, ensitrelvir], for which the figures for the IC50 in assay [1] and in assay [2] were 4.3 nM and 3.6 nM, respectively.

In the case of `CC(C)(C)[C@H](NC(=O)C(F)(F)F)C(=O)N1C[C@H]2[C@@H]([C@H]1C(=O)N[C@H](C#N)C[C@@H]1CCNC1=O)C2(C)C` [Nirmatrelvir, nirmatrelvir], the IC50 in assay [1] turned out to be 4.4 nM; in assay [2], 7 nM.

Regarding `CCC(CC)COC(=O)[C@H](C)N[P@](=O)(OC[C@H]1O[C@@](C#N)(c2ccc3c(N)ncnn23)[C@H](O)[C@@H]1O)Oc1ccccc1` [Remdesivir, remdesivir], in assay [1] (M^pro WT virus (reference)), the “Fold change in antiviral EC50” value is 1.0 fold. In addition, the IC50 stood at 1200 nM in assay [1] and 1100 nM in assay [2].

For `CC(C)(C)NC(=O)N[C@H](C(=O)N1C[C@H]2[C@@H]([C@H]1C(=O)NC(CC1CCC1)C(=O)C(N)=O)C2(C)C)C(C)(C)C` (some centres unmarked) [boceprevir], the “effect on dose-response curve versus WT M^pro” value in assay [3] was “no detectable effect”.
